Measurements reported in US11319311B2, “Crystalline forms of Actinomycin D for treatment of cancer” (TRANSGENEX NANOBIOTECH, INC., priority 2018, dated 2022).
Like-named read-outs stand apart in the source and are kept apart here.

Columns and labels:
[1] = system: H1299; assay: Monolayer cell culture IC50 (CellTiter-Glo viability), H1299; format: cell-based; settings: Lung, 72 hours treatment, average of three replications
Protocol: (§1) Cancer cell lines listed in Table 1 were subjected for testing anti-cancer potency or the half maximal inhibitory concentration (IC50) of the D-Actinomycin (DACT) molecular complexes.
(§2) The SK-ES-1, U-2 OS, and SAOS-2 cells were cultured in a growth medium that is ATCC-formulated McCoy's 5a Medium Modified, Catalog No. 30-2007. The PC-3, PANC-1, SK-Mel-5, A549, H460, and H1299 were cultured in a growth medium that is ATCC-formulated Dulbecco's Modified Eagle's Medium (DMEM), Catalog No. 30-2002. The cells were seeded on 96-well microtiter plates with 3500 cells per well and cultured in an incubator (Model 3120, Thermo Scientific, USA) with a constant temperature at 37° C. and 5% carbon dioxide (CO2) gas for 24 hours.
(§3) The new DACT-molecular complexes were made into a series with concentration of 200 nM to 40 nM, 8 nM, 1.6 nM, 0.32 nM, and 0.064 nM. 100 μl of each solution was then added into each well to bring out the final concentration of the drug treatment at 100 nM, 20 nM, 4 nM, 0.8 nM, 0.16 nM, or 0.032 nM, respectively.
(§4) The treated cells in the 96 well plate was then further cultured at the same conditions for 72 hours and then subjected for a final cell viability measurement. The measurement used a homogeneous method to determine the number of metabolically active cells presented in each of treatments. A testing reagent for the measurement is a mixture solution of the CellTiter-Glo® 2.0 reagent (CTG, Promega Cat #G9243, USA) and growth medium in 1:1 ratio in this respect.
(§5) The 96-well plate with the new molecular complex treated cells was taken out from incubator after the 72 hours of incubation, and the treatment solution in each well was removed using a multichannel pipette, and 100 μl of the testing reagent were added into each well. The plate was then placed on a plate shaker for 15 min. The plate was covered with a piece of aluminum foil to protect the CTG luminescence during the shaking time.
(§6) Then 90 μl of the 100 μl testing reagent were transferred into an opaque-walled 96-well plate for the CTG luminescence reading on a plate reader (SynergyH4 Hybrid Reader, Biotek, USA). The luminescence intensity of each treatment was positively correlated with the number of cells survived during the treatments.
(§7) All the treatment data was normalized by comparing with the control samples that had only growth medium without any molecular complexes. The half maximal inhibitory concentration (IC50) data was calculated using the nonlinear regression model and dose-responses (inhibition) curve built in the software. Each of treatments was performed in three replications each time and repeated three times for validation. The IC50 average […] (Avg) and standard deviation (STDV) were calculated based on the three replications.

[2] = system: SK-Mel-5; assay: Monolayer cell culture IC50 (CellTiter-Glo viability), SK-Mel-5; format: cell-based; settings: Skin, SK-Mel-5, monolayer, 72 hours treatment, average of three replications
Protocol: as §1, §2, §3, §4, §5, §6, §7

[3] = system: PC-3; assay: Monolayer cell culture IC50 (CellTiter-Glo viability), PC-3; format: cell-based; settings: Prostate, PC-3, monolayer, 72 hours treatment, average of three replications
Protocol: as §1, §2, §3, §4, §5, §6, §7

[4] = system: U-2 OS; assay: Monolayer cell culture IC50 (CellTiter-Glo viability), U-2 OS; format: cell-based; settings: Sarcoma, U-2 OS, monolayer, 72 hours treatment, average of three replications
Protocol: as §1, §2, §3, §4, §5, §6, §7

[5] = system: SK-ES-1; assay: Monolayer cell culture IC50 (CellTiter-Glo viability), SK-ES-1; format: cell-based, human; settings: Sarcoma, SK-ES-1, monolayer, 72 hours treatment, average of three replications
Protocol: as §1, §2, §3, §4, §5, §6, §7

[6] = Test I, read-out: IC50 Test (I) Avg
[7] = Test II, read-out: IC50 Test (II) Avg
[8] = Test III, read-out: IC50 Test (III) Avg

For `CCCOC(=O)c1ccc(O)cc1.Cc1c2oc3c(C)ccc(C(=O)NC4C(=O)NC(C(C)C)C(=O)N5CCCC5C(=O)N(C)CC(=O)N(C)C(C(C)C)C(=O)OC4C)c3nc-2c(C(=O)NC2C(=O)NC(C(C)C)C(=O)N3CCCC3C(=O)N(C)CC(=O)N(C)C(C(C)C)C(=O)OC2C)c(N)c1=O` (stereo not drawn) [DACT-propylparaben], the IC50 [1, 6] was 1.48 nM, the IC50 [1, 7] was 0.96 nM and the IC50 [1, 8] was 1.05 nM. The IC50 [2, 6] was 0.39 nM, the IC50 [2, 7] was 0.27 nM and the IC50 [2, 8] was 2.59 nM. The IC50 [3, 6] was 7.68 nM, the IC50 [3, 7] was 4.52 nM and the IC50 [3, 8] was 6.34 nM. For the same molecule, the IC50 [4, 6] was 3.63 nM, the IC50 [4, 7] was 3.85 nM and the IC50 [4, 8] was 1.79 nM. It also gave an IC50 [5, 6] of 0.76 nM, an IC50 [5, 7] of 0.34 nM and an IC50 [5, 8] of 0.49 nM.
